Series [1] addresses T1, Tyrosine-protein kinase JAK3 (Homo sapiens, UniProt P52333).
T1 sequence (P52333 whole entry): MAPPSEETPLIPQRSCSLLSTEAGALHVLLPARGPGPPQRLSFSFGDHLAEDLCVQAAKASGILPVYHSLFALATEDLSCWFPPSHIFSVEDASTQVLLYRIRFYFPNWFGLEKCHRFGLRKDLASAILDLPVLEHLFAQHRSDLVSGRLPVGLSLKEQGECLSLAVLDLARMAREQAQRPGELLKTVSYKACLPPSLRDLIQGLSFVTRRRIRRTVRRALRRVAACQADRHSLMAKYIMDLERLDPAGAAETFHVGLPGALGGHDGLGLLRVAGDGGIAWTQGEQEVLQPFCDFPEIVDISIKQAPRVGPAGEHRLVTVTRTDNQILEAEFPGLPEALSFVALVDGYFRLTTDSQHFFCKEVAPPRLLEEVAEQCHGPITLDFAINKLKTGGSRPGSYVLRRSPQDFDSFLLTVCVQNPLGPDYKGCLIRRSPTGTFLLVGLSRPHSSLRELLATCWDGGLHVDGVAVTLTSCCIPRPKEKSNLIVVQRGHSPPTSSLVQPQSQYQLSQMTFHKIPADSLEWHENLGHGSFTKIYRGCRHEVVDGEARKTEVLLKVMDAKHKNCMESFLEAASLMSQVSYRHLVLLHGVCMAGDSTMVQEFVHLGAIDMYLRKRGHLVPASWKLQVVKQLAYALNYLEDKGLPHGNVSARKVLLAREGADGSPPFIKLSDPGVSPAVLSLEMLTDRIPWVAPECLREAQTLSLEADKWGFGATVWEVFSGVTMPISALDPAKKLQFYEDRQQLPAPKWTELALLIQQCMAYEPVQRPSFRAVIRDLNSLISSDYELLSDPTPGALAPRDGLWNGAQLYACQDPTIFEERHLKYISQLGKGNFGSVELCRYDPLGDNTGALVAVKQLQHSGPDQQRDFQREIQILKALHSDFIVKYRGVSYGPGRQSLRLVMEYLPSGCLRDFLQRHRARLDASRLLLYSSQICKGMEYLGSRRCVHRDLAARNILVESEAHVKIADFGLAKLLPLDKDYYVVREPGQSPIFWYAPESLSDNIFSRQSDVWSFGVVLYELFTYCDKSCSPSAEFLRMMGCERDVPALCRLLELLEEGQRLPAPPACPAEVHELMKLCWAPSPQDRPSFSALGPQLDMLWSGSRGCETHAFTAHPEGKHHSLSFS
In words: Inhibition of human JAK3 using poly(Glu:Tyr)(4:1) as substrate preincubated for 20 mins followed by [gamma33P]ATP addition measured after 120 mins by ion exchange filter paper method.

Series [2] relates to MDA-MB-231. Put plainly: Induction of apoptosis in human MDA-MB-231 cells assessed as live cells at 0.9 uM after 72 hrs by Annexin V-FITC/propidium iodide staining based flow cytometry (reference value: 90.98%). Format: functional. Background: A flow cytometer gives signals particle by particle.
Series [3] is filed under the species Homo sapiens. Put plainly: Selectivity ratio of IC50 for human JAK3 to IC50 for human JAK2.
In series [4] the test system is MCF7. Put plainly: Induction of apoptosis in human MCF7 cells assessed as early apoptotic cells at 0.86 uM after 72 hrs by Annexin V-FITC/propidium iodide staining based flow cytometry (reference value: 1.19%). The format is functional.
In series [5] the test system is MCF7. Put plainly: Antiproliferative activity against human MCF7 cells after 72 hrs by MTT assay. The format is functional, cell-based. The conditions noted are these: MCF7, 72 h.
The target of series [6] is Non-receptor tyrosine-protein kinase TYK2 (Homo sapiens, UniProt P29597). In words: Inhibition of human TYK2 using KKSRGDYMTMQIG as substrate preincubated for 20 mins followed by [gamma33P]ATP addition measured after 120 mins by ion exchange filter paper method.
Series [7] can be described thus: Selectivity index, ratio of CC50 for mouse TAMH cells to IC50 for human PC3 cells. The format is toxicity. The following applies: TAMH cells (CC50) and PC3 cells (IC50).
Series [8] can be described thus: Selectivity index, ratio of CC50 for human AC10 cells to IC50 for human MCF7 cells. Format: toxicity. The conditions noted are these: AC10 cells (CC50) and MCF7 cells (IC50).
The species named for series [9] is Homo sapiens. Put plainly: Selectivity ratio of IC50 for human TYK2 to IC50 for human JAK2.
For series [10], the system named is MCF7. In words: Induction of apoptosis in human MCF7 cells assessed as necrotic cells at 0.86 uM after 72 hrs by Annexin V-FITC/propidium iodide staining based flow cytometry (reference value: 2.17%). Format: functional.
The test system of series [11] is MDA-MB-231. In words: Induction of apoptosis in human MDA-MB-231 cells assessed as late apoptotic cells at 0.9 uM after 72 hrs by Annexin V-FITC/propidium iodide staining based flow cytometry (reference value: 2.12%). The format is functional.
The target in series [12] is Tyrosine-protein kinase JAK2 (Homo sapiens, UniProt O60674). In words: Inhibition of human JAK2 using poly(Glu:Tyr)(4:1) as substrate preincubated for 20 mins followed by [gamma33P]ATP addition measured after 120 mins by ion exchange filter paper method.
The subject of a further series is PC-3. Put plainly: Induction of apoptosis in human PC3 cells assessed as necrotic cells at 0.71 uM after 72 hrs by Annexin V-FITC/propidium iodide staining based flow cytometry (reference value: 0.66%). Format: functional.
Series [13] concerns HCT-116. In words: Induction of apoptosis in human HCT116 cells assessed as live cells at 1.14 uM after 72 hrs by Annexin V-FITC/propidium iodide staining based flow cytometry (reference value: 95.7%). Format: functional.
For series [14], the system named is MDA-MB-231. In words: Induction of apoptosis in human MDA-MB-231 cells assessed as necrotic cells at 0.9 uM after 72 hrs by Annexin V-FITC/propidium iodide staining based flow cytometry (reference value: 5.45%). The format is functional.
Series [15] deals with HCT-116. Put plainly: Antiproliferative activity against human HCT116 cells after 72 hrs by MTT assay. The format is functional, cell-based. The following applies: HCT-116, 72 h.

Tyrosine-protein kinase JAK2, sequence (O60674 whole entry): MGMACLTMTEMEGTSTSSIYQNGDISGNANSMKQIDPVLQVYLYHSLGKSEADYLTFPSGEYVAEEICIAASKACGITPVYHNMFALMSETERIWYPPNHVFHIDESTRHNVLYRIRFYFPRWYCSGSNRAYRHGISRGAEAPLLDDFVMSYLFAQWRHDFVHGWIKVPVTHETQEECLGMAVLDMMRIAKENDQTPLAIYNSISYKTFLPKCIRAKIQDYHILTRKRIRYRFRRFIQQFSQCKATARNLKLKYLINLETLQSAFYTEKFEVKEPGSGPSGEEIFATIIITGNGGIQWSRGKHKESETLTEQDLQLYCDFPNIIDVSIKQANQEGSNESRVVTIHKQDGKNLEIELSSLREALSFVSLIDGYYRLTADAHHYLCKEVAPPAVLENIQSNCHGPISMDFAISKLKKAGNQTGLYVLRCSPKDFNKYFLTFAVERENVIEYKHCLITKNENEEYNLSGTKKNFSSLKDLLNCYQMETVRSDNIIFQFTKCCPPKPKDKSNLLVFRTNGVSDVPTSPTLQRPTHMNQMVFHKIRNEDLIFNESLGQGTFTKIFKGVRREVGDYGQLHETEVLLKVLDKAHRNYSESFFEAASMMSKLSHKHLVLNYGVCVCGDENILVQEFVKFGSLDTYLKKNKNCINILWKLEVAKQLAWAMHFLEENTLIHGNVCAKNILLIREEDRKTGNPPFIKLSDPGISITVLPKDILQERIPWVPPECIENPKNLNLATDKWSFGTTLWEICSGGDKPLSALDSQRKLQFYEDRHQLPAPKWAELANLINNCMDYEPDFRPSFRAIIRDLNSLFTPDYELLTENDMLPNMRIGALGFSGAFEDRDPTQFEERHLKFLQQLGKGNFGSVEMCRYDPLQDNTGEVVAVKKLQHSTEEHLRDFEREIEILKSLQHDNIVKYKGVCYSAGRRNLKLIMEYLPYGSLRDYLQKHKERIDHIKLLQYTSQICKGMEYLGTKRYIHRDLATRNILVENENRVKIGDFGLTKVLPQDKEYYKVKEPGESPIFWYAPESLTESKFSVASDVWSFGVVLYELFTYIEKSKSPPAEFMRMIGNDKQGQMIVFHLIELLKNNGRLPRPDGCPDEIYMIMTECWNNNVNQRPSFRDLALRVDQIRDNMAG
Non-receptor tyrosine-protein kinase TYK2, sequence (P29597 whole entry): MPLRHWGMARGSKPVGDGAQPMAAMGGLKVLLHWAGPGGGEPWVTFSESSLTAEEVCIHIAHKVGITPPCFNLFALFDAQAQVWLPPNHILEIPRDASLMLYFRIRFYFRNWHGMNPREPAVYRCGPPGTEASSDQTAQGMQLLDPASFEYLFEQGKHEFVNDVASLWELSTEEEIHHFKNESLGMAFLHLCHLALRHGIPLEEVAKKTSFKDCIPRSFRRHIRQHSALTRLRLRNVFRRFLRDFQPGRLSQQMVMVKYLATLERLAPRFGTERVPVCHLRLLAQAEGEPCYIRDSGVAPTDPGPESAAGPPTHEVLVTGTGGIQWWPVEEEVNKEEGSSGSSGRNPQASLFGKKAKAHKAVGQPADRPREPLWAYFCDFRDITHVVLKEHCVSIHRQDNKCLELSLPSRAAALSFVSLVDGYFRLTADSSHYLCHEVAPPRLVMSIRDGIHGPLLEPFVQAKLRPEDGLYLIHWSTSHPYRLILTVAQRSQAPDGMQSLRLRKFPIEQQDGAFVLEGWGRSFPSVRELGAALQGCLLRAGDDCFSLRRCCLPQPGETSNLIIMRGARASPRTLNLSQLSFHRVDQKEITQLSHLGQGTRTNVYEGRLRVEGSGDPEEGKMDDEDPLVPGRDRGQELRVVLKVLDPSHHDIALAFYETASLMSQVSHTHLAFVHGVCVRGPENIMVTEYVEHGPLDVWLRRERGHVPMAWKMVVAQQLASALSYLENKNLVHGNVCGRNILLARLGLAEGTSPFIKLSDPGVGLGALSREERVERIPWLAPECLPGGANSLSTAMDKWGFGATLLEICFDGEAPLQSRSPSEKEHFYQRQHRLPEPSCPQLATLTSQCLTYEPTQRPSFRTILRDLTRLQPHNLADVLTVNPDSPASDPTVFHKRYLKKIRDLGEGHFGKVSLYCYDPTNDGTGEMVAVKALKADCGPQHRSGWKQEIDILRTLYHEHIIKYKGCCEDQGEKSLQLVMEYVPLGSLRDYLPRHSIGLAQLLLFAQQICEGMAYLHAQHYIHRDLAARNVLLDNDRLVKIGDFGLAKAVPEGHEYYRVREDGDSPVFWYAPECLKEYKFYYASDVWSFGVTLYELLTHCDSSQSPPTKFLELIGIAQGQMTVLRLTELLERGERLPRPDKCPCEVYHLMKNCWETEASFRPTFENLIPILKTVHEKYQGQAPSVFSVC

As a reminder, the IC50 is the concentration that gives 50% inhibition. Lower therefore signals higher potency. Turning to `O=C(CCCCCCC(=O)Nc1ccc(-c2ccnc(Nc3ccc(N4CCOCC4)cc3)n2)cc1)NO`, the IC50 in series [1] came to 0.0801 µM; in the series with MCF7 [5], 0.7 µM; in [6], 0.0794 µM; in [12] it was 0.0031 µM; in the series with HCT-116 [15], 1.05 µM. Moreover, the Activity in the series with MDA-MB-231 [2] came to 10.29%; in the series on MCF7 [4], 29.26%; in the series with MCF7 [10] it was 7.97%; in the series on MDA-MB-231 [11], 39.98%; in the series on PC-3, 1.37%; with HCT-116 [13] it was 52.4%. In addition, the Activity in the series on MDA-MB-231 [14] is listed as 5.87%. For the same molecule, the Ratio IC50 in the series listed under Homo sapiens [3] worked out at 25.8; in the series filed under Homo sapiens [9] it was 25.6. Further, the results for the selectivity ratio in series [7] and in [8] were 9.98 and 5.69, respectively.

The values above are taken from ChEMBL document CHEMBL4265943, “Design and synthesis of potent dual inhibitors of JAK2 and HDAC based on fusing the pharmacophores of XL019 and vorinostat” (Eur J Med Chem, 2018).
